We go through one molecule from publication PMC5394417, “Investigating the molecular mechanism of positive and negative allosteric modulators in the calcium-sensing receptor dimer” (Scientific Reports, 2017).

The structures appear in SMILES notation.

For experiment [1], the target named is T1, HA-F821A CaSR mutant (Rattus norvegicus, UniProt P48442, F821A).
T1 construct: mGluR5 signal peptide (N); expressed in transfected cells; host or cells: HEK293T
T1 sequence (P48442 20-1079 F821A): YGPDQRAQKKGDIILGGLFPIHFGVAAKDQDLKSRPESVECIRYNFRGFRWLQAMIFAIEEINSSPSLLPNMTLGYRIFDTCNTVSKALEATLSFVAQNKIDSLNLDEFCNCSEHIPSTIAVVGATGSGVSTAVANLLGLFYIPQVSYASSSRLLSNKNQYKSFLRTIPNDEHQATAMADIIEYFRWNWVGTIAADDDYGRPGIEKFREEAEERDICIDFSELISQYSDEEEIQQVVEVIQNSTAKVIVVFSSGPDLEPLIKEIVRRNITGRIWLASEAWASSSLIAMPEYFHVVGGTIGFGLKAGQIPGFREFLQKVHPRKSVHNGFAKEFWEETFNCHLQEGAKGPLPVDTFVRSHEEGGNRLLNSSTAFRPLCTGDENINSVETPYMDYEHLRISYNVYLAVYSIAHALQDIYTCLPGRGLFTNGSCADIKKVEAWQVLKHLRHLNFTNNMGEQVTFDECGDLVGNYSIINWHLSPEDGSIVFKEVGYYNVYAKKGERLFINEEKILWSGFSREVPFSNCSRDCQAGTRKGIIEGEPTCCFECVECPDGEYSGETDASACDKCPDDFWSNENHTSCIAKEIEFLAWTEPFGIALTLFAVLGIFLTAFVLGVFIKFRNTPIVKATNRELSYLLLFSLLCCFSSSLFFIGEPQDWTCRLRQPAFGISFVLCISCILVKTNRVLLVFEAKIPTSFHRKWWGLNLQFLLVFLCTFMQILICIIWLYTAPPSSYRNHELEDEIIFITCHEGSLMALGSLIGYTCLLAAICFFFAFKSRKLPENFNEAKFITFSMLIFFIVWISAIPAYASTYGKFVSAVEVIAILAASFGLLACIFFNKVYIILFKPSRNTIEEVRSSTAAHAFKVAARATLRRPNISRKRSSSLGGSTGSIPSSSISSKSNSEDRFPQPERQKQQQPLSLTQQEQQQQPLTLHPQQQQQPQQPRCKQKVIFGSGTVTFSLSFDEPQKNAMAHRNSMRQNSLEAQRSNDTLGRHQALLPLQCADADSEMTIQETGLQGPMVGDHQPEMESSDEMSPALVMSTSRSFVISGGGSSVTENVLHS
As to the kind of experiment: IP-One assay, HEK293T transiently transfected. In kind it is cell-based.

Experiment [2] concerns the target T2, myc-CaSR-F801A (Rattus norvegicus, UniProt P48442, F801A).
T2 construct: mGluR5 signal peptide (N); expressed in transfected cells; host or cells: HEK293T
As to the kind of experiment: IP-One assay, co-expression with pEGFPN1 in HEK293T. In kind it is cell-based. The following applies: concentrations up to 45 mM Ca^2+. How it is done:
Human embryonic kidney (HEK) 293T cells were cultured in DMEM supplemented with 10% dFBS and 1% P/S at 37 °C and 5% CO2. 48 h prior to assay, transient transfection was performed using Lipofectamine 2000 as the transfection reagent. White opaque 96-well culture plates (PerkinElmer, Waltham, MA, USA) were used for the ELISA and the TR-FRET dimerization assay, while clear tissue culture treated 96-well plates (Corning, Corning, NY, USA) were used for the IP-One assay. Both plate types were coated with poly-D-lysine before addition of cells and transfection mix. 0.25 μl/well of Lipofectamine 2000 were diluted in 25 μl/well of Opti-MEM and incubated at room temperature (RT) for 5 min. 0.03 μg/well of DNA was diluted in 25 μl/well of Opti-MEM, and subsequently mixed with the Lipofectamine 2000 dilution and incubated 20 min at RT before addition to the plates. […]
Functional activity was measured using the IP-One assay, which is an IP1 accumulation assay. […] The 384-well plate was incubated for 1 h at RT in dark before being measured on an EnVision plate reader (PerkinElmer, Waltham, MA, USA). Upon excitation at 340 nm, emission at 615 nm and 665 nm was measured, and the FRET ratio (665 nm/615 nm) was converted to IP1 concentrations by interpolating values from an IP1 standard curve generated from a provided IP1 calibrator (Cisbio Bioassays, Codolet, France). […]

T2 sequence (P48442 20-1079 F801A): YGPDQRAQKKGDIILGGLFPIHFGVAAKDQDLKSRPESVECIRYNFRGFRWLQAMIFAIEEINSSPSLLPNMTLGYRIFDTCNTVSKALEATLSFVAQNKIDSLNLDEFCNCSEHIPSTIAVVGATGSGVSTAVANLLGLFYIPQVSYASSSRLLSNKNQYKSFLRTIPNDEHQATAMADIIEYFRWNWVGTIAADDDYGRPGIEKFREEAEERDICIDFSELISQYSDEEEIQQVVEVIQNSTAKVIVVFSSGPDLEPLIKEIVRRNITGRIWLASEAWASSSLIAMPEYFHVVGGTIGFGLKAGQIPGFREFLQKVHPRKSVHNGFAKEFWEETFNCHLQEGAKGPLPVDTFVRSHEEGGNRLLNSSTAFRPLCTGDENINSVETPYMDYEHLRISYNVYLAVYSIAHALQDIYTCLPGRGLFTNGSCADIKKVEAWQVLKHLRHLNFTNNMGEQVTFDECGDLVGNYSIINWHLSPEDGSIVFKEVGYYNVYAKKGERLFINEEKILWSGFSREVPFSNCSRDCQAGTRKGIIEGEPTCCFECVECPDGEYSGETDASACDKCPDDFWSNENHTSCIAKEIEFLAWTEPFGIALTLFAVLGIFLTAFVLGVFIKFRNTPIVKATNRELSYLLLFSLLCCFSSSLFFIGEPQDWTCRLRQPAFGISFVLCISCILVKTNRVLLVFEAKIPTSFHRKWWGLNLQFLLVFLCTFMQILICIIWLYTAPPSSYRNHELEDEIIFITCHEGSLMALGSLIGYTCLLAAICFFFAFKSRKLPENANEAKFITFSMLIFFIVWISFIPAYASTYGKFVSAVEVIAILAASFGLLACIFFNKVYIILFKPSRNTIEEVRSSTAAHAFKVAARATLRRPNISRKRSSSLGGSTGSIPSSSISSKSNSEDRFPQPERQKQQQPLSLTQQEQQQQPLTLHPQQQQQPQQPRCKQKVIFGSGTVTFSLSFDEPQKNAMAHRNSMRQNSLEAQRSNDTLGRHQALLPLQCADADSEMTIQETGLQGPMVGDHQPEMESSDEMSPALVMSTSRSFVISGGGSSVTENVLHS

In the case of `[Ca+2]` [Ca^2+], the values for the EC50 in experiment [1] (Ca^2+ alone), in experiment [1] (Ca^2+ with 1 μM NPS R-568) and in experiment [1] (Ca^2+ with 5 μM NPS 2143) were 2350 µM, 1920 µM and 5720 µM, respectively. Moreover, the “pEC50 ± S.E.M.” value is recorded as 2.63 ± 0.02 in experiment [1] (Ca^2+ alone), 2.72 ± 0.01 in experiment [1] (Ca^2+ with 1 μM NPS R-568) and 2.25 ± 0.05 in experiment [1] (Ca^2+ with 5 μM NPS 2143). Besides, the “Max ± S.E.M.” value in experiment [1] (Ca^2+ alone, normalized to maximum response of WT CaSR) came to 87 ± 4.3%; in experiment [1] (Ca^2+ with 1 μM NPS R-568, normalized to maximum response with Ca^2+ alone for the construct) it was 110 ± 14%; in experiment [1] (Ca^2+ with 5 μM NPS 2143, normalized to maximum response with Ca^2+ alone for the construct), 51 ± 8.0%. Also, in experiment [2], the “functional response to Ca^2+” value is “non-functional”.
